From US10028992B2, “Methods of treating muscular dystrophy” (BOARD OF REGENTS OF THE NEVADA SYSTEM OF HIGHER EDUCATION …, priority 2012, dated 2018)

Tested on: α7 integrin promoter
Assay: muscle cell-based assay: α7βgal+/− myoblasts/myotubes, LacZ reporter, β-galactosidase cleavage of FDG
Set-up: species or system mouse; Results in α7+/− β-galactosidase assay: scale not given here
Conditions: for Results in a α7+/− β-galactosidase assay, Myotubes, 0.5 uM: compound at 0.5 uM; for Results in a α7+/− β-galactosidase assay, Myotubes, 1 uM: compound at 1 uM; for Results in a α7+/− β-galactosidase assay, Myotubes, 5 uM: compound at 5 uM; for Results in a α7+/− β-galactosidase assay, Myotubes, 10 uM: compound at 10 uM; for Results in a α7+/− β-galactosidase assay, Myotubes, 20 uM: compound at 20 uM; for Results in a α7+/− β-galactosidase assay, Myotubes, 40 uM: compound at 40 uM; for AC50 / Emax / EC50: Mus musculus; for AC50: read-out: Fit Log AC50 (converted); for Emax: read-out: Max Response [%]; for Fit Curve Class: key not given; for Result in α7+/− β-galactosidase assay / Results in α7+/− β-galactosidase assay: Myoblasts; for EC50: given as log AC50 (negative values), read-out: Fit LogAC50 (converted)
Experimental: An α7 integrin null mouse was produced in which exon 1 of the gene encoding the α7 integrin was replaced by the LacZ reporter. In these mice, all the transcriptional regulatory elements of the α7 integrin promoter were retained, allowing β-galactosidase to report expression of 7 integrin. A primary myoblast cell line (designated α7βgal^+/−) isolated from 10 day old α7^+/− pups were analyzed for the ability of β-galactosidase to report α7 integrin expression. α7βgal^+/− myoblasts were differentiated and subjected to X-gal staining and western analysis (FIGS. 1A and 1B).
The activity of the α7 integrin promoter was measured by β-galactosidase cleavage of the non-fluorescent compound fluorescein di-β-D-galactopyranoside (FDG) to fluorescein. This assay was used to screen compound libraries to identify molecules that up-regulate α7 integrin expression in muscle.
Also evaluated was the effect of various isoforms of laminin and the ligand for α7β1 integrin on integrin expression. Positive hits were subjected to dose-response analysis, western analysis and a myostatin counterscreen (a negative regulator of muscle growth).

[1] = Table 12, log of AC50, given with negative sign, unit of AC50 not given
[2] = Table 12, fitted activity at zero concentration
[3] = Table 12 Compound data, concentration-response curve fit
[4] = curve fit, activity at zero concentration

Row | SMILES | Results in a α7+/− β-galactosidase assay, Myotubes, 0.5 uM | Results in a α7+/− β-galactosidase assay, Myotubes, 1 uM | Results in a α7+/− β-galactosidase assay, Myotubes, 5 uM | Results in a α7+/− β-galactosidase assay, Myotubes, 10 uM | Results in a α7+/− β-galactosidase assay, Myotubes, 20 uM | Results in a α7+/− β-galactosidase assay, Myotubes, 40 uM | AC50 [1] | Fit HillSlope (Table 12, curve fit) | Fit Zero Activity [%] [2] | Fit Curve Class (Table 12) | Score [3] | other results
1 | CC(C(=O)Nc1ccc(C#N)cc1)N(C)CC(=O)Nc1cccc(F)c1 (stereo not shown) [drawing 422] | −0.07067 | −0.1638 | 0.1526 | 0.4825 | −0.1663 | 0.2317 |  |  |  |  |  | 
2 | Cc1nnc(SCC(=O)c2ccc(Br)cc2)s1 [drawing 501] | −0.07126 | 0.01886 | −0.2188 | −0.3746 | −0.08999 | 0.006174 |  |  |  |  |  | 
3 | COc1cc(/C=C2/C(=N)N3C(SC)=NSC3=NC2=O)ccc1OC(=O)c1ccco1 [Compound 30] |  |  |  |  |  |  | 3.98 µM | 2.1876 | −19.157% | 1.1 | 83 | Emax: 73.4%
4 | Cc1cc(C)c(/C=C2\C(=O)Nc3ccccc32)[nH]1 [drawing 721] |  |  |  |  |  |  |  |  |  |  |  | Result in α7+/− β-galactosidase assay (0.5 uM): −0.05673; Result in α7+/− β-galactosidase assay (1 uM): −0.01961; Result in α7+/− β-galactosidase assay (5 uM): −0.2468; Result in α7+/− β-galactosidase assay (10 uM): −0.2855; Result in α7+/− β-galactosidase assay (20 uM): −0.1121; Result in α7+/− β-galactosidase assay (40 uM): −0.2422
5 | O=C1Nc2ccccc2/C1=C/c1c[nH]c(-c2ccccc2)n1 [drawing 548] |  |  |  |  |  |  |  |  |  |  |  | Results in α7+/− β-galactosidase assay (0.5 uM): 0.05646; Results in α7+/− β-galactosidase assay (1 uM): 0.09843; Results in α7+/− β-galactosidase assay (5 uM): 0.2266; Results in α7+/− β-galactosidase assay (10 uM): 0.1719; Results in α7+/− β-galactosidase assay (20 uM): 0.06424; Results in α7+/− β-galactosidase assay (40 uM): 0.08092
6 | O=C(c1ccccc1)N1CCN(S(=O)(=O)c2cccs2)CC1 [drawing 341] | 0.0882 | 0.04972 | 0.07204 | −0.06595 | −0.01414 | −0.06305 |  |  |  |  |  | 
7 | CCN(CC(=O)NCc1cccs1)C(=O)COc1ccc(C(N)=O)cc1 [drawing 562] |  |  |  |  |  |  |  |  |  |  |  | Results in α7+/− β-galactosidase assay (0.5 uM): −0.04485; Results in α7+/− β-galactosidase assay (1 uM): −0.05578; Results in α7+/− β-galactosidase assay (5 uM): −0.03005; Results in α7+/− β-galactosidase assay (10 uM): 0.2509; Results in α7+/− β-galactosidase assay (20 uM): −0.05432; Results in α7+/− β-galactosidase assay (40 uM): −0.02246
8 | COc1ccccc1-c1coc2c3c(ccc2c1=O)OC1CCCCN1C3 (stereo not shown) [Compound 3] |  |  |  |  |  |  | 2.24 µM | 3.0654 | −35.3084% | 1.1 | 89 | Emax: 159%
9 | Cc1ccc(-c2nc(C)sc2CC(=O)OCC(=O)Nc2c(F)cccc2F)cc1 [Compound 210] |  |  |  |  |  |  |  |  |  |  |  | EC50: 12.6 µM; Score (Table 12 compound data): 42; Fit Curve Class (curve class number): 2.1; Fit HillSlope (curve fit): 4.9549; Fit Zero Activity [%] [4]: 11.9156%
10 | Cc1ccsc1-c1nnc(S)n1C1CCCCC1 [drawing 413] | 0.2221 | 0.09759 | 0.1567 | −0.1231 | 0.1272 | −0.178 |  |  |  |  |  | 
11 | CN(C)C1(C/N=C/c2cc(Cl)cc([N+](=O)[O-])c2O)CCCCC1 [Compound 101] |  |  |  |  |  |  |  | 1.6604 | −15.8708% | 2.1 | 43 | Fit Infinite Activity [%] (Table 12, fitted activity at infinite concentration): 115.659%; Fit Log AC50 [1]: −5.05
12 | c1ccc(-c2cn3c4c(sc3n2)CCCC4)cc1 [drawing 698] |  |  |  |  |  |  |  |  |  |  |  | Results in α7+/− β-galactosidase assay (0.5 uM): 0.1572; Results in α7+/− β-galactosidase assay (1 uM): 0.06589; Results in α7+/− β-galactosidase assay (5 uM): 0.03743; Results in α7+/− β-galactosidase assay (10 uM): 0.2239; Results in α7+/− β-galactosidase assay (20 uM): −0.06232; Results in α7+/− β-galactosidase assay (40 uM): −0.1797
13 | Cc1ccc(OCC(=O)N2CCN(S(=O)(=O)c3ccc4c(c3)OCCO4)CC2)c(C)c1 [Compound 27] |  |  |  |  |  |  | 2 µM | 2.2526 | −26.8995% | 1.1 | 83 | Emax: 53.8%
14 | CCOc1ccccc1NC(=O)COC(=O)CNS(=O)(=O)c1ccc(C)cc1 [drawing 648] |  |  |  |  |  |  |  |  |  |  |  | Results in α7+/− β-galactosidase assay (0.5 uM): 0.03233; Results in α7+/− β-galactosidase assay (1 uM): 0.05083; Results in α7+/− β-galactosidase assay (5 uM): −0.02764; Results in α7+/− β-galactosidase assay (10 uM): −0.06749; Results in α7+/− β-galactosidase assay (20 uM): −0.1666; Results in α7+/− β-galactosidase assay (40 uM): −0.1295
15 | COc1cc(Cl)cc(CN2CCC(CCC(=O)NC3CC3)CC2)c1OC [Compound 167] |  |  |  |  |  |  |  |  |  |  |  | EC50: 7.08 µM; Score (Table 12 compound data): 42; Fit Curve Class (curve class number): 2.1; Fit HillSlope (curve fit): 1.7885; Fit Zero Activity [%] [4]: −38.2233%
16 | CN(Cc1c(C(=O)N/N=C/c2cccc(F)c2)nnn1-c1nonc1N)c1ccccc1 [Compound 97] |  |  |  |  |  |  | 5.62 µM | 3.132 | 1.2108% | 2.2 | 43 | 
17 | COc1ccc(N2CCN(C(=O)c3cc(C)on3)CC2)cc1 [drawing 331] | 0.1218 | 0.07329 | 0 .416848 | 0.01619 | −0.09449 | −0.06707 |  |  |  |  |  | 
18 | Nc1cccc(/C=C/C(=O)O)c1 [drawing 468] | 0.04663 | −0.01629 | −0.2823 | −0.1292 | −0.1085 | −0.2156 |  |  |  |  |  | 
19 | COCCSc1ccccc1C(=O)Nc1cc(C)cc(C)c1 [drawing 387] | −0.1267 | 0.09331 | −0.1086 | 0.1203 | −0.2283 | −0.2601 |  |  |  |  |  | 
20 | c1ccc(-c2cc(-c3nc4ccccc4[nH]3)c3ccccc3n2)cc1 [drawing 640] |  |  |  |  |  |  |  |  |  |  |  | Results in α7+/− β-galactosidase assay (0.5 uM): 0.2113; Results in α7+/− β-galactosidase assay (1 uM): 0.0679; Results in α7+/− β-galactosidase assay (5 uM): −0.00848; Results in α7+/− β-galactosidase assay (10 uM): −0.0409; Results in α7+/− β-galactosidase assay (20 uM): 0.08704; Results in α7+/− β-galactosidase assay (40 uM): −0.1752
21 | COc1cc(C(C(=O)NC2CCCCC2)N(C(=O)c2snc(C(N)=O)c2N)c2ccc(C)cc2)ccc1O (stereo not shown) [Compound 71] |  |  |  |  |  |  | 7.94 µM | 1.3443 | −2.1806% | 2.1 | 44 | 
22 | NC1=Nc2cccc3cccc1c23 [Compound 117] |  |  |  |  |  |  | 7.94 µM | 1.6604 | −0.2202% | 2.1 | 43 | 
23 | COc1cc(=O)n(C)c2ccccc12 [Compound 25] |  |  |  |  |  |  | 2.24 µM | 1.6604 | −18.7854% | 1.1 | 84 | Emax: 63%
